Source: patent US10945932B2, “Prebiotic oral care compositions containing carboxylic acids” (COLGATE-PALMOLIVE COMPANY, priority 2013, dated 2021)

Assays:
Format in all cases: cell-based
[1] = system: beneficial oral bacteria and pathogenic oral bacteria; test: Metabolic activity, prebiotic effect over the whole panel; settings: for prebiotic effect (metabolic activity): threshold value of 2
Description: (§1) The extent of metabolic activity of the tested bacteria in the presence of the above-mentioned acids after 24 hours and 48 hours was investigated through a high throughput phenotype microarray system (PM) for microbial cells (Biolog Inc.). Each PM can contain up to 95 different biochemical compounds (e.g. organic acids) that may act as substrates for bacteria as well as one negative control, not containing the substrates. Microarray plates were used in which the different wells of each plate were pre-loaded (by the manufacturer, Biolog Inc.) with different organic acids to be tested. Each bacterial species was tested using a separate microarray plate. Thus, a single bacterial species was tested with a variety of organic acids on each particular plate. The microarrays are based on redox technology, using cell respiration as a universal reporter. […] The observation of this color change indicates which of the substrates improve the metabolic activity and health of the cells.
(§2) Each bacterial species was collected from blood agar plates (incubated for 48 hours anaerobically at 37° C.) and transferred to an IF-0 Base inoculation fluid (Biolog Inc.), which is a nutritionally poor medium. […] A 1:5 dilution of this suspension was prepared by mixing 3 mL of the 42% transmittance cell suspension with 15 mL of an inoculation fluid (which inoculation fluid was formed by mixing 11.6 mL sterile water, 62.5 mL IF-0 base inoculation fluid and 0.9 mL of the tetrazolium dye “Biolog Redox Dye mix D”), resulting in a final cell density which was equal to 85% transmittance using a BioRad SmartSpec 3000 Photometer. For each of the acids tested, the microarray plate (obtained from the supplier (Biolog Inc.) with acid already present in the relevant wells in powder form) was directly inoculated with 100 μL/well of this 85% transmittance cell suspension.
(§3) All plates were incubated in an anaerobic atmosphere at 37° C. Color changes were measured spectrophotometrically at 492 nm (Thermo Scientific Multiskan Ascent) at 24 hrs and 48 hrs using the same plate at both time points.
(§4) The controls were also carried out three times, as above.

Streptococcus sanguinis = test: Metabolic activity, Biolog phenotype microarray; settings: S sanguinis
Description: as §1, §2, §3, §4

[2] = system: Aggregatibacter actinomycetemcomitans; test: Metabolic activity, Biolog phenotype microarray; settings: A actinomycetemcomitans
Description: as §1, §2, §3, §4

Prevotella intermedia = test: Metabolic activity, Biolog phenotype microarray; settings: P intermedia
Description: as §1, §2, §3, §4

Actinomyces naeslundii = test: Metabolic activity, Biolog phenotype microarray; settings: A naeslundii
Description: as §1, §2, §3, §4

Streptococcus salivarius = test: Metabolic activity, Biolog phenotype microarray; settings: S salivarius
Description: as §1, §2, §3, §4

Porphyromonas gingivalis = test: Metabolic activity, Biolog phenotype microarray; settings: P gingivalis
Description: as §1, §2, §3, §4

Streptococcus mitis = test: Metabolic activity, Biolog phenotype microarray; settings: S mitis
Description: as §1, §2, §3, §4

Tannerella forsythia = test: Metabolic activity, Biolog phenotype microarray; settings: T forsythia
Description: as §1, §2, §3, §4

Capnocytophaga sputigena = test: Metabolic activity, Biolog phenotype microarray; settings: C sputigena
Description: as §1, §2, §3, §4

Actinomyces viscosus = test: Metabolic activity, Biolog phenotype microarray; settings: A viscosus
Description: as §1, §2, §3, §4

Fusobacterium nucleatum = test: Metabolic activity, Biolog phenotype microarray; settings: F nucleatum
Description: as §1, §2, §3, §4

Streptococcus sobrinus = test: Metabolic activity, Biolog phenotype microarray; settings: S sobrinus
Description: as §1, §2, §3, §4

Streptococcus mutans = test: Metabolic activity, Biolog phenotype microarray; settings: S mutans
Description: as §1, §2, §3, §4

Veillonella parvula = test: Metabolic activity, Biolog phenotype microarray; settings: V parvula
Description: as §1, §2, §3, §4

Streptococcus gordonii = test: Metabolic activity, Biolog phenotype microarray; settings: S gordonii
Description: as §1, §2, §3, §4

| Compound | metabolic activity, OD at 492 nm divided by OD of control (control = 1) (Streptococcus sanguinis; 24 hrs) | metabolic activity, OD at 492 nm divided by OD of control (control = 1) (Streptococcus sanguinis; 48 hrs) | metabolic activity, OD at 492 nm divided by OD of control (control = 1) ([2]; 24 hrs) | metabolic activity, OD at 492 nm divided by OD of control (control = 1) ([2]; 48 hrs) | metabolic activity, OD at 492 nm divided by OD of control (control = 1) (Prevotella intermedia; 24 hrs) | metabolic activity, OD at 492 nm divided by OD of control (control = 1) (Prevotella intermedia; 48 hrs) | metabolic activity, OD at 492 nm divided by OD of control (control = 1) (Actinomyces naeslundii; 24 hrs) | metabolic activity, OD at 492 nm divided by OD of control (control = 1) (Actinomyces naeslundii; 48 hrs) | metabolic activity, OD at 492 nm divided by OD of control (control = 1) (Streptococcus salivarius; 24 hrs) | metabolic activity, OD at 492 nm divided by OD of control (control = 1) (Streptococcus salivarius; 48 hrs) | metabolic activity, OD at 492 nm divided by OD of control (control = 1) (Porphyromonas gingivalis; 24 hrs) | metabolic activity, OD at 492 nm divided by OD of control (control = 1) (Porphyromonas gingivalis; 48 hrs) | metabolic activity, OD at 492 nm divided by OD of control (control = 1) (Streptococcus mitis; 24 hrs) | metabolic activity, OD at 492 nm divided by OD of control (control = 1) (Streptococcus mitis; 48 hrs) | metabolic activity, OD at 492 nm divided by OD of control (control = 1) (Tannerella forsythia; 24 hrs) | metabolic activity, OD at 492 nm divided by OD of control (control = 1) (Tannerella forsythia; 48 hrs) | metabolic activity, OD at 492 nm divided by OD of control (control = 1) (Capnocytophaga sputigena; 24 hrs) | metabolic activity, OD at 492 nm divided by OD of control (control = 1) (Capnocytophaga sputigena; 48 hrs) | metabolic activity, OD at 492 nm divided by OD of control (control = 1) (Actinomyces viscosus; 24 hrs) | metabolic activity, OD at 492 nm divided by OD of control (control = 1) (Actinomyces viscosus; 48 hrs) | further results |
| --- | --- | --- | --- | --- | --- | --- | --- | --- | --- | --- | --- | --- | --- | --- | --- | --- | --- | --- | --- | --- | --- |
| CC(=O)O [Acetic acid, acetic acid] |  |  |  |  |  |  |  |  |  |  |  |  |  |  |  |  |  |  |  |  | prebiotic effect (metabolic activity) ([1]; 48 hrs): exhibited prebiotic effects |
| O=C(O)CC(O)(CC(=O)O)C(=O)O [Citric acid, citric acid] | 0.8938 | 0.8704 | 1.3098 | 1.4736 | 0.9626 | 0.8872 | 0.8551 | 0.7965 | 0.9935 | 0.9148 | 0.8443 | 0.8692 | 1.0814 | 0.8953 | 0.9320 | 0.8510 | 0.5992 | 0.8818 | 0.9333 | 0.9052 | metabolic activity, OD at 492 nm divided by OD of control (control = 1) (Fusobacterium nucleatum; 24 hrs): 0.7626; metabolic activity, OD at 492 nm divided by OD of control (control = 1) (Fusobacterium nucleatum; 48 hrs): 0.6603; metabolic activity, OD at 492 nm divided by OD of control (control = 1) (Streptococcus sobrinus; 24 hrs): 0.9828; metabolic activity, OD at 492 nm divided by OD of control (control = 1) (Streptococcus sobrinus; 48 hrs): 0.8769; metabolic activity, OD at 492 nm divided by OD of control (control = 1) (Streptococcus mutans; 24 hrs): 1.1156; metabolic activity, OD at 492 nm divided by OD of control (control = 1) (Streptococcus mutans; 48 hrs): 1.0700; metabolic activity, OD at 492 nm divided by OD of control (control = 1) (Veillonella parvula; 24 hrs): 1.2832; metabolic activity, OD at 492 nm divided by OD of control (control = 1) (Veillonella parvula; 48 hrs): 2.0488; metabolic activity, OD at 492 nm divided by OD of control (control = 1) (Streptococcus gordonii; 24 hrs): 0.9010; metabolic activity, OD at 492 nm divided by OD of control (control = 1) (Streptococcus gordonii; 48 hrs): 0.7481; prebiotic effect (metabolic activity) ([1]; 48 hrs): exhibited prebiotic effects |
| C[C@H](O)C(=O)O [L-lactic acid] | 0.9076 | 0.8849 | 1.7850 | 2.2055 | 0.9628 | 0.9344 | 1.6747 | 1.8440 | 0.9183 | 0.8317 | 0.7480 | 0.7325 | 1.0230 | 0.9098 | 0.8509 | 0.8314 | 1.4435 | 1.1474 | 1.5404 | 1.7915 | metabolic activity, OD at 492 nm divided by OD of control (control = 1) (Fusobacterium nucleatum; 24 hrs): 0.8008; metabolic activity, OD at 492 nm divided by OD of control (control = 1) (Fusobacterium nucleatum; 48 hrs): 0.7884; metabolic activity, OD at 492 nm divided by OD of control (control = 1) (Streptococcus sobrinus; 24 hrs): 0.8282; metabolic activity, OD at 492 nm divided by OD of control (control = 1) (Streptococcus sobrinus; 48 hrs): 0.7747; metabolic activity, OD at 492 nm divided by OD of control (control = 1) (Streptococcus mutans; 24 hrs): 0.8885; metabolic activity, OD at 492 nm divided by OD of control (control = 1) (Streptococcus mutans; 48 hrs): 0.8138; metabolic activity, OD at 492 nm divided by OD of control (control = 1) (Veillonella parvula; 24 hrs): 3.4930; metabolic activity, OD at 492 nm divided by OD of control (control = 1) (Veillonella parvula; 48 hrs): 3.0003; metabolic activity, OD at 492 nm divided by OD of control (control = 1) (Streptococcus gordonii; 24 hrs): 0.7156; metabolic activity, OD at 492 nm divided by OD of control (control = 1) (Streptococcus gordonii; 48 hrs): 0.6821; prebiotic effect (metabolic activity) ([1]; 24 hrs): exhibited prebiotic effects; speed of metabolism by beneficial versus pathogenic bacteria ([1]; value of 2 reached at 24 hrs for the beneficial but not the pathogenic bacteria): metabolized faster by the beneficial bacteria than by the pathogenic bacteria |
| O=C(O)C[C@H](O)C(=O)O [L-malic acid] | 0.8788 | 0.9018 | 1.6257 | 1.9196 | 0.9958 | 1.0146 | 0.9796 | 0.9086 | 0.9740 | 0.9426 | 0.8367 | 0.8279 | 0.9743 | 0.8207 | 0.9252 | 0.9462 | 0.8764 | 0.8870 | 0.9803 | 1.0090 | metabolic activity, OD at 492 nm divided by OD of control (control = 1) (Fusobacterium nucleatum; 24 hrs): 0.8813; metabolic activity, OD at 492 nm divided by OD of control (control = 1) (Fusobacterium nucleatum; 48 hrs): 0.8215; metabolic activity, OD at 492 nm divided by OD of control (control = 1) (Streptococcus sobrinus; 24 hrs): 1.0506; metabolic activity, OD at 492 nm divided by OD of control (control = 1) (Streptococcus sobrinus; 48 hrs): 0.9898; metabolic activity, OD at 492 nm divided by OD of control (control = 1) (Streptococcus mutans; 24 hrs): 0.9627; metabolic activity, OD at 492 nm divided by OD of control (control = 1) (Streptococcus mutans; 48 hrs): 0.8760; metabolic activity, OD at 492 nm divided by OD of control (control = 1) (Veillonella parvula; 24 hrs): 2.0256; metabolic activity, OD at 492 nm divided by OD of control (control = 1) (Veillonella parvula; 48 hrs): 1.5012; metabolic activity, OD at 492 nm divided by OD of control (control = 1) (Streptococcus gordonii; 24 hrs): 0.9161; metabolic activity, OD at 492 nm divided by OD of control (control = 1) (Streptococcus gordonii; 48 hrs): 0.8652; prebiotic effect (metabolic activity) ([1]; 24 hrs): exhibited prebiotic effects |
| COC(=O)CCC(=O)O [Mono methyl succinate, mono methyl succinate] | 0.8806 | 0.8453 | 0.9321 | 1.0787 | 1.0197 | 1.0603 | 0.8880 | 0.8882 | 0.9553 | 0.8641 | 0.7502 | 0.6747 | 1.0231 | 0.9293 | 0.8922 | 0.8775 | 0.8328 | 0.9842 | 0.9911 | 1.0314 | metabolic activity, OD at 492 nm divided by OD of control (control = 1) (Fusobacterium nucleatum; 24 hrs): 0.8349; metabolic activity, OD at 492 nm divided by OD of control (control = 1) (Fusobacterium nucleatum; 48 hrs): 0.7615; metabolic activity, OD at 492 nm divided by OD of control (control = 1) (Streptococcus sobrinus; 24 hrs): 0.9731; metabolic activity, OD at 492 nm divided by OD of control (control = 1) (Streptococcus sobrinus; 48 hrs): 0.9118; metabolic activity, OD at 492 nm divided by OD of control (control = 1) (Streptococcus mutans; 24 hrs): 0.9482; metabolic activity, OD at 492 nm divided by OD of control (control = 1) (Streptococcus mutans; 48 hrs): 0.8864; metabolic activity, OD at 492 nm divided by OD of control (control = 1) (Veillonella parvula; 24 hrs): 2.0008; metabolic activity, OD at 492 nm divided by OD of control (control = 1) (Veillonella parvula; 48 hrs): 2.0023; metabolic activity, OD at 492 nm divided by OD of control (control = 1) (Streptococcus gordonii; 24 hrs): 0.8102; metabolic activity, OD at 492 nm divided by OD of control (control = 1) (Streptococcus gordonii; 48 hrs): 0.7556 |
